Results published in patent publication US6177474A, “Polyhydroxyphenol derivatives and preventive and therapeutic agents for bone and cartilage diseases containing the same” (Hoechst Marion Roussel, priority 1996, dated 2001).

Tested on: bone cells containing osteoclast cells
Test: Pit formation assay: inhibition of osteolysis (absorption pits on ivory slices)
Format: cell-based, ICR mice
Details: 72 h; for No. of absorption pits (Mean ± SD): 10 µM; for inhibition at 10 µM: Mus musculus, Osteoclast, compound 10^-5 M, 0% = pits with rPTH (1×10^-8 M) without medicine, 100% = no absorption pit, read-out: Ratio of inhibition (%)
Method: ICR mice 11-12 days old (purchased from Charles River Japan) were euthanized by anesthesia with ether and immediately immersed in 70% ethanol for disinfection. By the use of ophthalmologist scissors and pincers sterilized in advance with ethanol, femur and tibia were excised from the sacrificed mice and chopped into small pieces in an α-MEM culture medium (purchased from Flow Laboratories Corp.). containing 5% FBS (purchased from Irvine Scientific Corp.), 100 U/ml penicillin and 100 μg/ml streptomycin. The supernatant formed consequently was recovered by pipeting, cleaned with the culture broth, and suspended in a 5% FBS α-MEM culture broth to obtain bone cells containing osteoclast cells. The supernatant of a bone cell-floating liquid formed after 3 minutes' standing of the bone cells at rest was recovered and passed through a mesh (cell strainer, 70 μm, purchased from Falcon Corp.). The filtrate was adjusted to a cell concentration of 1×10^7 /ml and used for the pit formation assay.
An ivory piece was cut into slices, 150 μm in thickness, by the use of a precision low-speed cutting machine (purchased from Buehler Corp.). Cylindrical holes, 6 mm in diameter, were perforated in the slices by the use of a one-hole punch. The ivory slices were immersed in 70% ethanol and subjected therein to an ultrasonic cleaning treatment twice each for five minutes and washed three times with a sterilized PBS and twice with the culture medium. The ivory slices were set in place on a 96-hole culture plate (purchased from Falcon Corp.). The perforated ivory slices on the culture plate, with a culture broth containing a given compound of the present invention prepared in a concentration of 2×10^-5 M added in a fixed volume of 100 μl (final medicine concentration 1×10^-5 M) to each of the holes and a culture broth containing prepared bone cells in a concentration of 1×10^7 /ml placed in each of the holes, were cultured for three days in a 10% CO2 incubator at 37° C. After the culture, the ivory slices were placed in an aqueous 2 N sodium hydroxide and the cells on the slices were removed by the use of a rubber spatula. The ivory slices were washed with water and methanol. The absorption pits formed in the ivory slices were dyed with Coomassie Brilliant Blue and were counted under a microscope. Though the numbers of absorption pits were naturally found to disperse among test lots, depending on the ratios of varying specie s of cells in the bone cell suspensions and the lots of animals used, satisfactorily uniform test results were found in one and the same test lot. The ratio of inhibition of osteolysis was calculated on the 100% scale, in which 0% stands for the number of absorption pits found in the culture broth in the presence of rPTH (1×10^-8 M) and in the absence of a medicine and 100% for total absence of absorption pit.
The test described above was performed in a total of ten runs, Tests 1-10.
In the columns titled "Added medicine No." found in Table 2 and Table 3, the symbol (-) denotes a control involving no addition of medicine and the numerical No. denotes the No. of the compound mentioned above.

SMILES	No. of absorption pits (Mean ± SD)	inhibition at 10 µM
CC(C)=CCc1cc(C(=O)CC(C)C)c(O)cc1O [Compound 55, {2,4-dihydroxy-5-(3-methyl-2-butenyl)phenyl} (2-methylpropyl)ketone]	15.8 ± 3.3	90.8%
CC(C)=CCC1(CC=C(C)C)C(=O)C(C(=O)Cc2ccccc2)=C(O)C=C1O [Compound 41, 3,5-dihydroxy-6-(phenylacetyl)-2,2-bis(3-methyl-2-butenyl)cyclohexa-3,5-dienone]	3.2 ± 0.7	97.4%
CC(C)=CCc1c(O)c(O)cc(C(=O)CC(C)C)c1O [Compound 26, {3-(3-methyl-2-butenyl)-2,4,5-trihydroxyphenyl} (2-methylpropyl) ketone]	29.3 ± 4.8	85.5%
CC(C)=CCc1c(O)cc(O)c(C(=O)Cc2ccccc2)c1O [Compound 42, {3-(3-methyl-2-butenyl)-2,4,6-trihydroxyphenyl} (phenylmethyl) ketone]	31.7 ± 3.6	74.7%
CC(C)=CCc1c(O)c(O)c(CC=C(C)C)c(C(=O)CC(C)C)c1O [Compound 25, {3,6-bis(3-methyl-2-butenyl)-2,4,5-trihydroxyphenyl} (2-methylpropyl) ketone]	0	100%
CC(C)=CCCC(C)=CCc1c(O)c(CC=C(C)CCC=C(C)C)c(O)c(C(=O)Cc2ccccc2)c1O [Compound 43, {3,5-bis(3,7-dimethyl-2,6-octadienyl)-2,4,6-trihydroxyphenyl} (phenylmethyl) ketone]	11.3 ± 2.5	95%
CC(C)=CCc1c(O)c(CC=C(C)C)c(O)c(C(=O)CC(C)C)c1O [Compound 15, {3,5-bis(3-methyl-2-butenyl)-2,4,6-trihydroxyphenyl} (2-methylpropyl) ketone]	8.3 ± 2.4	89.6%
CC(C)CC(=O)c1ccc(O)cc1O [Compound 52, (2,4-dihydroxyphenyl)(2-methylpropyl) ketone]	94.3 ± 13.8	44.9%
CC(=O)C1=C(O)C(CC=C(C)C)=C(O)C(O)(CC=C(C)C)C1=O (stereo not shown) [Compound 30, 2,4-bis(3-methyl-2-butenyl)-6-(1-oxoethyl)-2,3,5-trihydroxycyclohexa-3,5-dienone]	21.4 ± 3.9	78.2%
CC(C)=CCCC(C)=CCc1c(O)c(CC=C(C)CCC=C(C)C)c(O)c(C(=O)CC(C)C)c1O [Compound 19, {3,5-bis(3,7-dimethyl-2,6-octadienyl)-2,4,6-trihydroxyphenyl} (2-methylpropyl) ketone]	55.3 ± 6.1	70.5%
CC(C)=CCOc1c(CC=C(C)C)c(C)c(C(=O)CC(C)C)c(O)c1CC=C(C)C [Compound 51, {3,5-bis(3-methyl-2-butenyl)-2-hydroxy-6-methyl-4-(3-methyl-2-butenyloxy)phenyl} (2-methylpropyl) ketone]	102.7 ± 6.2	42.8%
